Read-outs that look alike come from different tables or passages of the source.
Target: T1, PARK7 (Homo sapiens, UniProt Q99497)
T1 sequence (Q99497 1-189): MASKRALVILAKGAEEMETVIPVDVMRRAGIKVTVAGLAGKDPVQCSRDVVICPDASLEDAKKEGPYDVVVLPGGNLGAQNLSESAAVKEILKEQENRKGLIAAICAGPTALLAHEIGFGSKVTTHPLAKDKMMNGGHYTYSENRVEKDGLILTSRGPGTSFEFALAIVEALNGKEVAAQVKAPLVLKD
Assay: High-throughput screen of the crude compound library, PARK7 fluorescence polarization (FP) assay with FP reagent JYQ-107
Type: biochemical
Conditions: 1.25 µM, crude compound library, read-out: HTS FP assay %Inhibition (1.25 µM)

Row | SMILES | inhibition at 1.25 µM [%] | inhibition at 1.25 µM (FP reagent JYQ-107) [%]
1 | N#CN1CC[C@@H](C(=O)Nc2nc3c(s2)CN(C(=O)CC2CCN(c4ccc(C(F)(F)F)cn4)CC2)CC3)C1 [compound 291] | 79.8 | –
2 | N#CN1CC[C@@H](C(=O)Nc2nc3c(s2)CN(C(=O)c2cccnc2-n2cncn2)CC3)C1 [compound 292] | 73.8 | –
3 | CCc1ccc(C(=O)N2CCC(C(=O)N3CCc4nc(NC(=O)[C@@H]5CCN(C#N)C5)sc4C3)CC2)o1 [compound 294] | 78.1 | –
4 | Cc1nc(-c2ccsc2)ccc1C(=O)N1CCc2nc(NC(=O)[C@@H]3CCN(C#N)C3)sc2C1 [compound 296] | 73.2 | –
5 | CN(C)S(=O)(=O)c1ccc(N2CCCCC2)c(C(=O)N2CCc3nc(NC(=O)[C@@H]4CCN(C#N)C4)sc3C2)c1 [compound 297] | 56.1 | –
6 | N#CN1CC[C@@H](C(=O)Nc2nc3c(s2)CN(C(=O)c2cnc(Cc4ccc(F)cc4)s2)CC3)C1 [compound 298] | 79.5 | –
7 | Cc1cc(C)cc(N(CCC(=O)N2CCc3nc(NC(=O)[C@@H]4CCN(C#N)C4)sc3C2)S(=O)(=O)c2ccc(Cl)cc2)c1 [compound 299] | 87.8 | –
8 | N#CN1CC[C@@H](C(=O)Nc2nc3c(s2)CN(C(=O)c2csc(CCc4ccccc4)n2)CC3)C1 [compound 300] | 86.1 | –
9 | N#CN1CC[C@@H](C(=O)Nc2nc3c(s2)CN(C(=O)c2ccc(-c4nnco4)cc2)CC3)C1 [compound 301] | 85.9 | –
10 | N#CN1CC[C@@H](C(=O)Nc2nc3c(s2)CN(C(=O)c2ccccc2Cn2cncn2)CC3)C1 [compound 302] | 66.3 | –
11 | N#CN1CC[C@@H](C(=O)Nc2nc3c(s2)CN(C(=O)Cc2cnn(Cc4ccccc4)c2)CC3)C1 [compound 303] | 80.8 | –
12 | CNS(=O)(=O)c1ccc(-c2ccc(Cl)c(Cl)c2)c(C(=O)N2CCc3nc(NC(=O)[C@@H]4CCN(C#N)C4)sc3C2)c1 [compound 305] | 74.8 | –
13 | N#CN1CC[C@@H](C(=O)Nc2nc3c(s2)CN(C(=O)Cc2csc(N4CCCC4=O)n2)CC3)C1 [compound 306] | 76 | –
14 | CC1CN(S(=O)(=O)c2ccc(C(=O)N3CCc4nc(NC(=O)[C@@H]5CCN(C#N)C5)sc4C3)cc2)CC(C)O1 (stereo partly drawn) [compound 307] | 84.8 | –
15 | Cc1ncsc1C(=O)N(C)c1ccccc1C(=O)N1CCc2nc(NC(=O)[C@@H]3CCN(C#N)C3)sc2C1 [compound 308] | 64.6 | –
16 | N#CN1CC[C@@H](C(=O)Nc2nc3c(s2)CN(C(=O)Cc2ccc(-n4cccc4)cc2)CC3)C1 [compound 309] | 80.2 | –
17 | N#CN1CC[C@@H](C(=O)Nc2nc3c(s2)CN(C(=O)c2sccc2-n2cccc2)CC3)C1 [compound 310] | 85.3 | –
18 | Cc1ccc(Oc2ccc(C(=O)N3CCc4nc(NC(=O)[C@@H]5CCN(C#N)C5)sc4C3)nc2)cc1 [compound 316] | 85.7 | –
19 | N#CN1CC[C@@H](C(=O)Nc2nc3c(s2)CN(C(=O)c2ccc(OCc4cccnc4)cc2)CC3)C1 [compound 317] | 76.2 | –
20 | CCn1cc([C@@H]2OCCC[C@H]2C(=O)N2CCc3nc(NC(=O)[C@@H]4CCN(C#N)C4)sc3C2)cn1 [compound 318] | 65.8 | –
21 | N#CN1CC[C@@H](C(=O)Nc2nc3c(s2)CN(C(=O)c2ccc(C#Cc4ccccc4)cc2)CC3)C1 [compound 319] | 75.9 | –

Row | SMILES | inhibition at 1.25 µM [%] | inhibition at 1.25 µM (FP reagent JYQ-107) [%]
22 | N#CN1CC[C@@H](C(=O)Nc2nc3c(s2)CN(C(=O)C2CCN2C2CCCC2)CC3)C1 (stereo partly drawn) [compound 320] | 64.2 | –
23 | N#CN1CC[C@@H](C(=O)Nc2nc3c(s2)CN(C(=O)c2cc(S(=O)(=O)Nc4nccs4)ccc2F)CC3)C1 [compound 321] | 81.4 | –
24 | N#CN1CC[C@@H](C(=O)Nc2nc3c(s2)CN(C(=O)C2CCCN2C(=O)C2CC2)CC3)C1 (stereo partly drawn) [compound 322] | 67.1 | –
25 | N#CN1CC[C@@H](C(=O)Nc2nc3c(s2)CN(C(=O)C(OC2CCOCC2)c2ccccc2)CC3)C1 (stereo partly drawn) [compound 323] | 67.7 | –
26 | N#CN1CC[C@@H](C(=O)Nc2nc3c(s2)CN(C(=O)CCn2ccc(C(=O)N4CCCC4)n2)CC3)C1 [compound 324] | 64.4 | –
27 | N#CN1CC[C@@H](C(=O)Nc2nc3c(s2)CN(C(=O)c2ccccc2OCc2cccs2)CC3)C1 [compound 325] | 86.9 | –
28 | N#CN1CC[C@@H](C(=O)Nc2nc3c(s2)CN(C(=O)c2c[nH]nc2-c2ccncc2)CC3)C1 [compound 326] | 69.7 | –
29 | COc1ccccc1N1CC(C(=O)N2CCc3nc(NC(=O)[C@@H]4CCN(C#N)C4)sc3C2)CCC1=O (stereo partly drawn) [compound 327] | 70 | –
30 | Cn1nccc1[C@@H]1C[C@H]1C(=O)N1CCc2nc(NC(=O)[C@@H]3CCN(C#N)C3)sc2C1 [compound 328] | 79.7 | –
31 | N#CN1CC[C@@H](C(=O)Nc2nc3c(s2)CN(C(=O)C2CCCN(c4ncccn4)C2)CC3)C1 (stereo partly drawn) [compound 329] | 71.1 | –
32 | N#CN1CC[C@@H](C(=O)Nc2nc3c(s2)CN(C(=O)c2ccc(-c4ccncc4)[nH]c2=O)CC3)C1 [compound 330] | 64.2 | –
33 | Cc1onc(C(=O)N2CCc3nc(NC(=O)[C@@H]4CCN(C#N)C4)sc3C2)c1CN1CCN(C)CC1 [compound 331] | 57.9 | –
34 | N#CN1CC[C@@H](C(=O)Nc2nc3c(s2)CN(C(=O)c2cccn2Cc2ccccn2)CC3)C1 [compound 332] | 73.2 | –
35 | N#CN1CC[C@@H](C(=O)Nc2nc3c(s2)CN(C(=O)c2cc(COc4ccc(F)cc4F)on2)CC3)C1 [compound 335] | 79.4 | –
36 | Cc1cc(C)n(-c2ccc(Cl)c(C(=O)N3CCc4nc(NC(=O)[C@@H]5CCN(C#N)C5)sc4C3)n2)n1 [compound 338] | 68.4 | –
37 | N#CN1CC[C@@H](C(=O)Nc2nc3c(s2)CN(C(=O)Cc2csc(NS(=O)(=O)c4ccccc4)n2)CC3)C1 [compound 339] | 82.7 | –
38 | N#CN1CC[C@@H](C(=O)Nc2nc3c(s2)CN(C(=O)Cc2coc(-c4cccs4)n2)CC3)C1 [compound 341] | 87 | –
39 | COc1ccc(S(=O)(=O)N(CCC(=O)N2CCc3nc(NC(=O)[C@@H]4CCN(C#N)C4)sc3C2)Cc2ccccc2)cc1 [compound 342] | 85.1 | –
40 | Cc1oc(-c2ccsc2)nc1CC(=O)N1CCc2nc(NC(=O)[C@@H]3CCN(C#N)C3)sc2C1 [compound 343] | 74.3 | –
41 | Cc1ccc(C=CS(=O)(=O)N2CCC(C(=O)N3CCc4nc(NC(=O)[C@@H]5CCN(C#N)C5)sc4C3)CC2)cc1 [compound 344] | 72 | –
42 | N#CN1CC[C@@H](C(=O)Nc2nc3c(s2)CN(C(=O)Cc2csc(-c4ccccc4)n2)CC3)C1 [compound 346] | – | 61.9

Row | SMILES | inhibition at 1.25 µM [%] | inhibition at 1.25 µM (FP reagent JYQ-107) [%]
43 | Cc1ccccc1-n1cc(C(=O)N2CCc3nc(NC(=O)[C@@H]4CCN(C#N)C4)sc3C2)cn1 [compound 347] | – | 87.5
44 | N#CN1CC[C@@H](C(=O)Nc2nc3c(s2)CN(C(=O)c2cccnc2-n2cccn2)CC3)C1 [compound 348] | – | 71.9
45 | CCn1nc(C(C)C)cc1C(=O)N1CCCCC1C(=O)N1CCc2nc(NC(=O)[C@@H]3CCN(C#N)C3)sc2C1 (stereo partly drawn) [compound 349] | – | 59.6
46 | Cn1nc(C2CCC2)cc1C(=O)N1CCc2nc(NC(=O)[C@@H]3CCN(C#N)C3)sc2C1 [compound 350] | – | 84.3
47 | N#CN1CC[C@@H](C(=O)Nc2nc3c(s2)CN(C(=O)c2cccc(Oc4nccs4)c2)CC3)C1 [compound 351] | – | 88.9
48 | CNS(=O)(=O)c1ccc(-c2ccccc2OC(F)(F)F)c(C(=O)N2CCc3nc(NC(=O)[C@@H]4CCN(C#N)C4)sc3C2)c1 [compound 352] | – | 72
49 | N#CN1CC[C@@H](C(=O)Nc2nc3c(s2)CN(C(=O)Cc2ccc(OCc4ccccn4)cc2)CC3)C1 [compound 353] | – | 73.2
50 | N#CN1CC[C@@H](C(=O)Nc2nc3c(s2)CN(C(=O)c2cc(S(=O)(=O)Nc4cccc(F)c4)ccc2F)CC3)C1 [compound 354] | – | 72.5
51 | N#CN1CC[C@@H](C(=O)Nc2nc3c(s2)CN(C(=O)c2ncn(-c4ccccc4)n2)CC3)C1 [compound 355] | – | 85.3
52 | N#CN1CC[C@@H](C(=O)Nc2nc3c(s2)CN(C(=O)C2CCCN(c4ccc(Cl)nn4)C2)CC3)C1 (stereo partly drawn) [compound 356] | – | 76.2
53 | N#CN1CC[C@@H](C(=O)Nc2nc3c(s2)CN(C(=O)c2cn[nH]c2C2CC2)CC3)C1 [compound 357] | – | 69.7
54 | N#CN1CC[C@@H](C(=O)Nc2nc3c(s2)CN(C(=O)C2CCCN(c4ncccc4C(F)(F)F)C2)CC3)C1 (stereo partly drawn) [compound 358] | – | 77.6
55 | N#CN1CC[C@@H](C(=O)Nc2nc3c(s2)CN(C(=O)c2nn(-c4ccccc4)c(=O)[nH]c2=O)CC3)C1 [compound 359] | – | 67.9
56 | Cn1cc(-c2nc(C(=O)N3CCc4nc(NC(=O)[C@@H]5CCN(C#N)C5)sc4C3)cs2)cn1 [compound 360] | – | 72.2
57 | N#CN1CC[C@@H](C(=O)Nc2nc3c(s2)CN(C(=O)c2ncsc2Cc2ccccc2)CC3)C1 [compound 361] | – | 82.9
58 | N#CN1CC[C@@H](C(=O)Nc2nc3c(s2)CN(C(=O)C2CCN(C(=O)N4CCOCC4)CC2)CC3)C1 [compound 362] | – | 71.7
59 | Cc1n[nH]c(C)c1Cc1ccc(C(=O)N2CCc3nc(NC(=O)[C@@H]4CCN(C#N)C4)sc3C2)o1 [compound 363] | – | 78.9
60 | CC1=NN(c2cccc(Br)c2)C(=O)C1CC(=O)N1CCc2nc(NC(=O)[C@@H]3CCN(C#N)C3)sc2C1 (stereo partly drawn) [compound 364] | – | 73
61 | CCn1ccc(-c2cc(C(=O)N3CCc4nc(NC(=O)[C@@H]5CCN(C#N)C5)sc4C3)no2)n1 [compound 365] | – | 78.3
62 | N#CN1CC[C@@H](C(=O)Nc2nc3c(s2)CN(C(=O)c2ccc(Cn4ccccc4=O)o2)CC3)C1 [compound 366] | – | 79.5
63 | CC(C)n1nccc1[C@@H]1OCC[C@H]1C(=O)N1CCc2nc(NC(=O)[C@@H]3CCN(C#N)C3)sc2C1 [compound 367] | – | 65

— PMC11129182, “Development of Inhibitors, Probes, and PROTAC Provides a Complete Toolbox to Study PARK7 in the Living Cell” (Journal of Medicinal Chemistry, 2024)
